For this data set, the system named is CCRIS mutagenicity, Ames/micronucleus/aberration tests. In words: CCRIS mutagenicity studies.

Calls of active or inactive are those of the source. No rule for the calls is given here.

For the compound `CC(C)=CCCC(C)CC=O` (configuration not stated), the mutagenic call (Test System: AMES SALMONELLA TYPHIMURIUM, Strain/Indicator: TA97A, Metabolic Activation: NONE, Method: STANDARD PLATE) is “inactive; negative”; the mutagenic call (Test System: AMES SALMONELLA TYPHIMURIUM, Strain/Indicator: TA97A, Metabolic Activation: RAT LIVER S-9, AROCLOR 1254, Method: STANDARD PLATE) was “inactive; negative”; the mutagenic call (Test System: AMES SALMONELLA TYPHIMURIUM, Strain/Indicator: TA98, Metabolic Activation: NONE, Method: STANDARD PLATE) was “inactive; negative”; the mutagenic call (Test System: AMES SALMONELLA TYPHIMURIUM, Strain/Indicator: TA98, Metabolic Activation: RAT LIVER S-9, AROCLOR 1254, Method: STANDARD PLATE) was “inactive; negative”; the mutagenic call (Test System: AMES SALMONELLA TYPHIMURIUM, Strain/Indicator: TA100, Metabolic Activation: NONE, Method: STANDARD PLATE) is “inactive; negative”; the mutagenic call (Test System: AMES SALMONELLA TYPHIMURIUM, Strain/Indicator: TA100, Metabolic Activation: RAT LIVER S-9, AROCLOR 1254, Method: STANDARD PLATE) is “inactive; negative”. Also, the mutagenic call by setting is: (Test System: AMES SALMONELLA TYPHIMURIUM, Strain/Indicator: TA102, Metabolic Activation: NONE, Method: STANDARD PLATE) “inactive; negative”; (Test System: AMES SALMONELLA TYPHIMURIUM, Strain/Indicator: TA102, Metabolic Activation: RAT LIVER S-9, AROCLOR 1254, Method: STANDARD PLATE) “inactive; negative”.
Turning to `CN(C)c1ccc(N=Nc2ccccc2CO)cc1`, the mutagenic call (Test System: AMES SALMONELLA TYPHIMURIUM, Strain/Indicator: TA98, Metabolic Activation: RAT, LIVER, S-9, N-BENZYLIMIDAZOLE, Method: PREINCUBATION) is “active; positive”.
Regarding `C[C@@H]1O[C@@H](OC[C@H]2O[C@@H](Oc3c(-c4ccc(O)c(O)c4)oc4cc(O)cc(O)c4c3=O)[C@H](O)[C@@H](O)[C@@H]2O)[C@H](O)[C@H](O)[C@H]1O`, the mutagenic call was “inactive; negative” (Test System: Ames Salmonella typhimurium, Strain/Indicator: TA98, Metabolic Activation: None, Method: Standard plate) and “inactive; negative” (Test System: Ames Salmonella typhimurium, Strain/Indicator: TA98, Metabolic Activation: Rat, Liver, S-9, Aroclor 1254, Method: Standard Plate).
For `CCOCCCl`, the mutagenic call by setting is: (Test System: AMES SALMONELLA TYPHIMURIUM, Strain/Indicator: TA98, Metabolic Activation: NONE, Method: PREINCUBATION) “inactive; negative”; (Test System: AMES SALMONELLA TYPHIMURIUM, Strain/Indicator: TA98, Metabolic Activation: RAT, LIVER, S-9, PHENOBARBITAL AND BETA-NAPHTHOFLAVONE, Method: PREINCUBATION) “inactive; negative”; (Test System: AMES SALMONELLA TYPHIMURIUM, Strain/Indicator: TA100, Metabolic Activation: NONE, Method: PREINCUBATION) “inactive; negative”; (Test System: AMES SALMONELLA TYPHIMURIUM, Strain/Indicator: TA100, Metabolic Activation: RAT, LIVER, S-9, PHENOBARBITAL AND BETA-NAPHTHOFLAVONE, Method: PREINCUBATION) “inactive; negative”; (Test System: AMES SALMONELLA TYPHIMURIUM, Strain/Indicator: TA102, Metabolic Activation: NONE, Method: PREINCUBATION) “inactive; negative”; (Test System: AMES SALMONELLA TYPHIMURIUM, Strain/Indicator: TA102, Metabolic Activation: RAT, LIVER, S-9, PHENOBARBITAL AND BETA-NAPHTHOFLAVONE, Method: PREINCUBATION) “inactive; negative”. Also, the mutagenic call is “active; positive” (Test System: AMES SALMONELLA TYPHIMURIUM, Strain/Indicator: TA104, Metabolic Activation: NONE, Method: PREINCUBATION); “inactive; negative” (Test System: AMES SALMONELLA TYPHIMURIUM, Strain/Indicator: TA104, Metabolic Activation: RAT, LIVER, S-9, PHENOBARBITAL AND BETA-NAPHTHOFLAVONE, Method: PREINCUBATION); “inactive; negative” (Test System: AMES SALMONELLA TYPHIMURIUM, Strain/Indicator: TA1535, Metabolic Activation: NONE, Method: PREINCUBATION); “inactive; negative” (Test System: AMES SALMONELLA TYPHIMURIUM, Strain/Indicator: TA1535, Metabolic Activation: RAT, LIVER, S-9, PHENOBARBITAL AND BETA-NAPHTHOFLAVONE, Method: PREINCUBATION); “inactive; negative” (Test System: AMES SALMONELLA TYPHIMURIUM, Strain/Indicator: TA1537, Metabolic Activation: NONE, Method: PREINCUBATION); “inactive; negative” (Test System: AMES SALMONELLA TYPHIMURIUM, Strain/Indicator: TA1537, Metabolic Activation: RAT, LIVER, S-9, PHENOBARBITAL AND BETA-NAPHTHOFLAVONE, Method: PREINCUBATION). For the same compound, the mutagenic call runs as follows: (Test System: E. COLI, Strain/Indicator: WP2UVRA/PKM101, Metabolic Activation: NONE, Method: PREINCUBATION) “inactive; negative”; (Test System: E. COLI, Strain/Indicator: WP2UVRA/PKM101, Metabolic Activation: RAT, LIVER, S-9, PHENOBARBITAL AND BETA-NAPHTHOFLAVONE, Method: PREINCUBATION) “inactive; negative”; (Test System: E. COLI, Strain/Indicator: WP2UVRA, Metabolic Activation: NONE, Method: PREINCUBATION) “inactive; negative”; (Test System: E. COLI, Strain/Indicator: WP2UVRA, Metabolic Activation: RAT, LIVER, S-9, PHENOBARBITAL AND BETA-NAPHTHOFLAVONE, Method: PREINCUBATION) “inactive; negative”.
For the compound `COc1cccc2c1C(=O)c1c(O)c3c(c(O)c1C2=O)CC(O)(C(C)=O)CC3OC1CC(N2CCOCC2C#N)C(O)C(C)O1` (configuration not stated), the mutagenic call by setting is: (Test System: AMES SALMONELLA TYPHIMURIUM, Strain/Indicator: TA98, Metabolic Activation: NONE) “inactive; negative”; (Test System: AMES SALMONELLA TYPHIMURIUM, Strain/Indicator: TA98, Metabolic Activation: RAT, LIVER, S-9, AROCLOR 1254) “active; positive”; (Test System: CHINESE HAMSTER V-79, Strain/Indicator: V-79/8-AZAGUANINE, Metabolic Activation: NONE) “active; positive”; (Test System: CHINESE HAMSTER V-79, Strain/Indicator: V-79/8-AZAGUANINE, Metabolic Activation: RAT, HEPATOCYTES) “inactive; negative”; (Test System: UDS RAT HEPATOCYTES, Strain/Indicator: THY INCORP, Metabolic Activation: NONE, Method: AUTOMATIC COLONY COUNTER) “active; positive”.
